Results from publication PMC12966373 (Nature Communications, 2026).

Tests used:
primary human monocytes = assay: Coacervate uptake in primary human monocytes; format: cell-based; conditions: particles pre-assembled at 0.5 mg/mL, diluted 1:10 to 1:3 in media; 4 h and 24 h
[1] = cited from earlier work
U2OS cells = assay: Coacervate uptake and stability over 5 days in U2OS cells; format: cell-based, human; conditions: particles pre-assembled at 0.5 mg/mL, diluted 1:10 to 1:3 in media; 4 h and 24 h
[2] = tested on: B16-F10 murine melanoma cells; assay: Coacervate uptake in B16-F10 cells; format: cell-based, mouse; conditions: particles pre-assembled at 0.5 mg/mL, diluted 1:10 to 1:3 in media; 4 h and 24 h
[3] = Coacervate assembly via pH shift: size and number by microscopy; format: physicochemical; conditions: peptide 0.5 mg/mL or higher

Q: With GHGVYGHGVYGHGPYGHGPYGHGLYW [HBpep] as the substance, how does the uptake by cells (primary human monocytes) read?
A: highly efficient uptake

Q: What about the “solubility in acidic buffer” value ([1]; pH 4.5) of the same substance?
A: largely soluble

Q: What about the “behaviour at physiological pH” value ([1]; pH 7.4, standard conditions) of the same substance?
A: phase separate

Q: What about the uptake by cells (U2OS cells) of the same substance?
A: highly efficient uptake

Q: And the uptake by cells [2]?
A: highly efficient uptake

Q: What about the average particle diameter [3] of the same substance?
A: > 2 µm
